From EP3506874B1, “A PERSONAL CARE COMPOSITION” (Unilever N.V., priority 2016, dated 2018) come the findings set out here.

The subject of one data set is THP1-XBlue™ cells. Put plainly: Anti-inflammation THP-1 in vitro assay: LPS-induced IL-6 by ELISA. The class given is cell-based. The method, then:
The following procedure was used to test the anti-inflammation efficacy of the various actives alone or in combination. THP1-XBlue™ (Cat No: thpx-sp, InvivoGen) cells were cultured as suspense in RPMI 1640 medium supplemented with 10% FBS, penicillin (10 U/mL) - streptomycin (10 µg/ML). Cells were differentiated in 24-well plates at the density of 5 x 10^5 cells / well with 100 nM PMA for 72 h. Cells were then co-treated with pure E. coli lipopolysaccharides (LPS) and single concentration or a combination of 6-gingerdiol and niacinamide at different doses. After 24 h, the supernatants were collected measured for interleukin (IL)-6 as pro-inflammatory bio-marker using enzyme-linked immunosorbent assay (ELISA).
For orientation: In an ELISA, binding on a coated surface is turned into a signal by an enzyme label.

Data set [1] has as its system Primary adult human keratinocytes (HEKa). The data set is described as follows: 2-D Dandruff Model: triple cytokine mix (IL-17, IL-22, TNFα) induced IL-8 by ELISA, normalised to protein. It counts as cell-based. The note with it: with triple cytokine mix, mix alone 744.83. The procedure: Primary adult human keratinocytes (HEKa) frozen at passage 1 were purchased from Invitrogen (Cat no […]). They were thawed into KGM Gold (Lonza cat no 00195769) made up with all components of the accompanying bullet kit plus 70μM calcium (from a stock solution of 200mM calcium chloride), placed in a T75 tissue culture flask and grown to 70-80% confluence. The cells were passaged and again grown to 70-80% confluence. At passage 3 the cells were washed with calcium and magnesium free PBS (Life Technologies cat no 14190-094) and removed from the flask using trypsin-EDTA (Life Technologies cat no 25300-054) and washed by centrifugation with trypsin neutralising solution (Life Technologies cat no R-002-100). The cell pellet was re-suspended in KGM Gold plus 70μM calcium and containing the bullet kit components but omitting the gentamycin and hydrocortisone (referred to as plating medium). The cells were plated into 24-well plates at a density of 2x10^4 cells/well and allowed to settle for 24 hours prior to treatment. The medium is removed from the cells and replace by 0.5ml plating medium containing […], […] and […] TNFα together with the active at the required concentration. A concentration range can be done. Also included are an untreated control, a vehicle control and a triple cytokine mix without active all in triplicate. The plates are incubated for a further 16 to 24 hours. In this case the actives were 6-gingerdiol and a selection of curcuminoids. The medium is harvested for IL-8 ELISA (R &D Systems Duoset kit cat no DY208) and the cells lysed for protein assay (Pierce BCA Protein Assay Kit Life Technologies cat no 23225) in order to normalise IL-8 to protein.

Data set [2] in a line: Solubility in organic solvents. It counts as physicochemical. The following applies: commonly used organic solvents such as alcohols, ethers, esters, acetonitrile, chloroform, dichloromethane, dimethylformamide, dimethylsulfoxide.

For the molecule `CCCCCC(O)CC(O)CCc1ccc(O)c(OC)c1` (stereo not shown) [6-gingerdiol, 1-(4-hydroxy-3-methoxyphenyl)decane-3,5-diol], the “Concentration of IL-6” value with THP1-XBlue™ cells (1.25 µM of 6-gingerdiol, with LPS, LPS alone 46137) was 37212 pg/mL; in the data set on THP1-XBlue™ cells (10 µM of 6-gingerdiol, co-treated with LPS, 24 h, LPS alone 10547), 8781 pg/mL. Further, the “Concentration of IL-8” value in data set [1] (5 µM of 6-gingerdiol) is 347.99 pg/100µgprotein; in data set [1] (10 µM of 6-gingerdiol) it was 446.85 pg/100µgprotein; in data set [1] (20 µM of 6-gingerdiol), 390.31 pg/100µgprotein. Further, the solubility entry in data set [2] is on record as “soluble”.
Regarding `NC(=O)c1cccnc1` [niacinamide], the “Concentration of IL-6” value is 41688 pg/mL in the data set on THP1-XBlue™ cells (0.5 mM niacinamide, with LPS, LPS alone 46137); 39894 pg/mL in the data set with THP1-XBlue™ cells (1 mM of niacinamide, with LPS, LPS alone 46137); 6031 pg/mL with THP1-XBlue™ cells (16 mM of niacinamide, co-treated with LPS, 24 h, LPS alone 10547). Moreover, the “Concentration of IL-8” value in data set [1] (10 mM of niacinamide) came to 408.30 pg/100µgprotein.
